Results reported in patent US20140155445A1, “Compounds and Methods for Treating Cancer and Diseases of the Central Nervous System” (Osta Biotechnologies Inc., priority 2007, published 2014).
Where a name gives a salt, the structure may show the parent alone. Read-outs that look alike come from different tables or passages of the source.

Tests used:
[1] = target: T1, HO-1 (rat spleen) (Rattus norvegicus, UniProt P06762); assay: HO enzymatic activity in rat spleen microsomal fraction (CO formed from methemalbumin, gas chromatography); type: biochemical
T1 construct: Spleen microsomes were used as a source of HO-1; from tissue; host or cells: spleen microsomal fraction of adult male Sprague-Dawley rats
T1 sequence (P06762 1-289): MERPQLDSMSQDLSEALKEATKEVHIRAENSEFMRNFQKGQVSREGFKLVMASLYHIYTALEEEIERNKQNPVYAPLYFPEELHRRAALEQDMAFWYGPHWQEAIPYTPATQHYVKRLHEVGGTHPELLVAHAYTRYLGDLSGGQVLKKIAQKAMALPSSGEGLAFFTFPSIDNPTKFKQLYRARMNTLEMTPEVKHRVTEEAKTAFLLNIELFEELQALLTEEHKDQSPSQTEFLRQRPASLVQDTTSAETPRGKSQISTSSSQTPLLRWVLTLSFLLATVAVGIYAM
Experimental: (§1) Incubations for HO activity analysis were done under conditions for which the rate of CO formation (pmol CO×min^−1×mg protein^−1) was linear with respect to time and microsomal protein concentration. Briefly, reaction mixtures (150 μL) consisting of 100 mM phosphate buffer (pH 7.4), 50 μM methemalbumin, and 1 mg/mL protein were pre-incubated with the inhibitors at final concentrations ranging from 0.1-100 μM for 10 minutes at 37° C. Reactions were initiated by adding NADPH at a final concentration of 1 mM and incubations were performed for an additional 15 minutes at 37° C.
(§2) Incubations for HO activity analysis were done under conditions for which the rate of CO formation (pmol CO/mg protein/minute) was linear with respect to time and microsomal protein concentration. Briefly, reaction mixtures (150 μL) consisting of 100 mM phosphate buffer (pH 7.4), 50 μM methemalbumin and 1 mg/mL protein were pre-incubated with the vehicle (ethanol or water in which the inhibitors were dissolved), or inhibitors at final concentrations ranging from 0.1-1000 μM for 10 minutes at 37° C. Reactions were initiated by adding β-NADPH at a final concentration of 1 mM and incubations were carried out for an additional 15 minutes at 37° C. Reactions were stopped by instantly freezing the reaction mixture on pulverized dry ice and CO formation was measured by gas chromatography using a TA 3000R Process Gas Analyzer (Trace Analytical/Ametek, Newark, Del., USA).
(§3) The values on the abscissa represent the decimal logarithm of the inhibitor's concentration (in μM), whereas the values of the activity on the ordinate are expressed as a percentage of the control experiments without inhibitor.
(§4) The IC50 values for the replicate experiments were employed to generate the reported standard deviation value.

[2] = target: T2, HO-2 (rat brain) (Rattus norvegicus, UniProt P23711); assay: HO enzymatic activity in rat brain microsomal fraction (CO formed from methemalbumin, gas chromatography); type: biochemical
T2 construct: brain microsomes were used as a source of HO-2; from tissue; host or cells: brain microsomal fraction of adult male Sprague-Dawley rats
T2 sequence (P23711 1-315): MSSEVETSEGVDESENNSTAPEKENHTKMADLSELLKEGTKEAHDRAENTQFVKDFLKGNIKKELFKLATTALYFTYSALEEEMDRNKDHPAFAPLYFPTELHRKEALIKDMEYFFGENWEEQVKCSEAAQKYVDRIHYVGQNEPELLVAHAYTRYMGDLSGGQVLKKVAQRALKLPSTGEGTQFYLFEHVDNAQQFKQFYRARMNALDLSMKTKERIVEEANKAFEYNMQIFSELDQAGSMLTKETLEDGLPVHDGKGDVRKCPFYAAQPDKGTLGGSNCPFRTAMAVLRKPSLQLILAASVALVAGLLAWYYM
Experimental: as §1, §2, §3, §4

[3] = rat spleen microsomes, average ± standard deviation of replicate experiments, read-out: IC50 HO-1 (rat spleen)/μM
[4] = rat brain microsomes, average ± standard deviation of replicate experiments, read-out: IC50 HO-2 (rat brain)/μM
[5] = rat brain microsomes, average ± standard deviation of replicate experiments

Compound	IC50 [1, 3] [µM]	IC50 [2, 4] [µM]	also measured
O=C(c1ccccc1)C(c1ccccc1)n1ccnc1 (racemic) [(±)-2-imidazol-1-yl-1,2-diphenyl-ethanone hydrochloride]	24 ± 6	> 100	
CC(C(=O)c1ccccc1)n1ccnc1 (racemic) [(±)-2-imidazol-1-yl-1-phenyl-propan-1-one hydrochloride]			IC50 [1]: 49 ± 2 µM; IC50 [2]: > 100 µM
O=C1c2ccccc2CC1n1ccnc1 (racemic) [(±)-2-imidazol-1-yl-indan-1-one hydrochloride]	> 100	> 100	
CC(O)C(Cc1ccc(Cl)cc1)n1ccnc1 (racemic) [(±)-4-(4-chlorophenyl)-3-imidazol-1-yl-butan-2-ol hydrochloride]			IC50 [1]: 40 ± 2 µM; IC50 [2]: > 100 µM
CC(=O)C(Cc1ccc(Cl)cc1)n1ccnc1 (racemic) [(±)-4-(4-chlorophenyl)-3-imidazol-1-yl-butan-2-one hydrochloride]			IC50 [1]: > 100 µM; IC50 [2]: > 100 µM
OC(CCc1ccccc1)Cn1cnc(-c2ccccc2)c1 (racemic) [(±)-4-phenyl-1-(4-phenyl-imidazol-1-yl)-butan-2-ol hydrochloride]	15 ± 1	> 100	
OC(CCc1ccccc1)Cn1ccnn1 (racemic) [(±)-4-phenyl-1-[1,2,3]triazol-1-yl-butan-2-ol hydrochloride]	44 ± 1	> 100	
OC(CCc1ccccc1)Cn1cncn1 (racemic) [(±)-4-phenyl-1-[1,2,4]triazol-1-yl-butan-2-ol hydrochloride]	10.2 ± 0.2		IC50 [2]: 54 ± 12 µM
OC(CCc1ccccc1)Cn1cnnn1 (racemic) [(±)-4-phenyl-1-tetrazol-1-yl-butan-2-ol hydrochloride]	56 ± 6	> 100	
OC(CCc1ccccc1)Cn1ncnn1 (racemic) [(±)-4-phenyl-1-tetrazol-2-yl-butan-2-ol hydrochloride]			IC50 [1]: > 100 µM; IC50 [2]: > 100 µM
CC(=O)C(Cc1ccccc1)n1cncn1 (racemic) [(±)-4-phenyl-3-[1,2,4]triazol-1-yl-butan-2-one]	> 100		IC50 HO-2 (rat brain)/μM [2, 5]: INACTIVE
Clc1ccc(C(Cn2ccnc2)NCc2ccccc2)cc1 (racemic) [(±)-benzyl-[1-(4-chloro-phenyl)-2-imidazol-1-yl-ethyl]amine dihydrochloride]	3.39 ± 0.08	22 ± 4	
Clc1ccc(CC[C@@]2(Cn3ccnc3)OCC(COc3ccc(I)cc3)O2)cc1 (stereo in doubt) [(2R,4S)-1-[2-[2-(4-chloro-phenyl)-ethyl]-4-(4-iodo-phenoxymethyl)-[1,3]dioxolan-2-ylmethyl]-1H-imidazole hydrochloride]	9 ± 3	15 ± 4	
Clc1ccc(CC[C@@]2(Cn3ccnc3)OCC(COc3ccc(C45CC6CC(CC(C6)C4)C5)cc3)O2)cc1 (stereo in doubt) [(2R,4S)-2-[2-(4-chlorophenyl)ethyl]-2-[(1H-imidazol-1-yl)methyl]-4-[(4-adamantan-1-yl-phenoxy)methyl]-1,3-dioxolane hydrochloride]	> 100	> 100	
Nc1ccc(OCC2CO[C@@](CCc3ccc(Cl)cc3)(Cn3ccnc3)O2)cc1 (stereo in doubt) [(2R,4S)-2-[2-(4-chlorophenyl)ethyl]-2-[(1H-imidazol-1-yl)methyl]-4-[(4-aminophenyloxy)meth-yl]-1,3-dioxolane dihydrochloride]	1.4 ± 0.3	13 ± 4	
COc1ccc(OCC2CO[C@](CCc3ccc(Cl)cc3)(Cn3ccnc3)O2)cc1 (stereo in doubt) [(2S,4S)-2-[2-(4-chlorophenyl)ethyl]-2-[(1H-imidazol-1-yl)methyl]-4-[(4-methoxyphenyloxy)meth-yl]-1,3-dioxolane hydrochloride]	28 ± 15	29 ± 6	
Cl.OC(Cn1ccnc1)Cn1ccnc1 [1,3-Di-(1H-imidazol-1-yl)propan-2-ol dihydrochloride]			IC50 HO-1 (rat spleen)/μM ([1]; rat spleen microsomes, average ± standard deviation of replicate experiments): Inactive; IC50 HO-2 (rat brain)/μM [2, 5]: Inactive
c1cn(CCCCCCCCn2ccnc2)cn1 [1,8-bis-(1H-imidazol-1-yl)octane dihydrochloride]	> 100	> 100	

More lines, in order of falling IC50 [1, 3], values ahead:

IC50 [1, 3] [µM]	IC50 [2, 4] [µM]	Compound	also measured
~7	> 100	Fc1ccc(COC(Cn2ccnc2)c2ccc(CCc3ccccc3)cc2)cc1 (racemic) [(±)-1-[2-(4-fluoro-benzyloxy)-2-(4-phenethyl-phenyl)-ethyl]-1H-imidazole]	
5 ± 2	> 100	Fc1ccc(COC(Cn2ccnc2)c2ccc(-c3ccc(Br)cc3)cc2)cc1 (racemic) [(±)-1-[2-(4′-bromo-biphenyl-4-yl)-2-(4-fluoro-benzyloxy)-ethyl]-1H-imidazole]	
3.85 ± 0.07	> 100	O=C(Cc1ccccc1)C(Cn1ccnc1)c1ccccc1 (racemic) [(±)-4-(1H-imidazol-1-yl)-1,3-diphenyl-butan-2-one hydrochloride]	
3.5 ± 0.2	22 ± 8	Clc1ccc(CC[C@@]2(Cn3ccnc3)OCC(COc3ccc(Br)cc3)O2)cc1 (stereo in doubt) [(2R,4S)-1-{4-(4-bromo-phenoxymethyl)-2-[2-(4-chloro-phenyl)-ethyl]-[1,3]dioxolan-2-ylmethyl}-1H-imidazole hydrochloride]	
2 ± 0.6	6.5 ± 0.1	OC(CCn1ccnc1)C12CC3CC(CC(C3)C1)C2 (racemic) [(±)-1-adamantan-1-yl-3-imidazol-1-yl-propan-1-ol hydrochloride]	
1.8 ± 0.5	7.1 ± 0.7	Oc1ccc(OCC2CO[C@@](CCc3ccc(Cl)cc3)(Cn3ccnc3)O2)cc1 (stereo in doubt) [(2R,4S)-2-[2-(4-chlorophenyl)ethyl]-2-[(1H-imidazol-1-yl)methyl]-4-[(4-hydroxyphenyloxy)meth-yl]-1,3-dioxolane hydrochloride]	
1.73 ± 0.01	3.3 ± 0.9	COCC1CO[C@@](CCc2ccc(Cl)cc2)(Cn2ccnc2)O1 (stereo in doubt) [(2R,4S)-1-{2-[2-(4-chloro-phenyl)-ethyl]-4-methoxymethyl-[1,3]dioxolan-2-ylmethyl}-1H-imidazole hydrochloride]	
1.33 ± 0.03	19 ± 7	COc1ccc(OCC2CO[C@@](CCc3ccc(Cl)cc3)(Cn3ccnc3)O2)cc1 (stereo in doubt) [(2R,4S)-1-[2-[2-(4-chloro-phenyl)-ethyl]-4-(4-methoxy-phenoxymethyl)-[1,3]dioxolan-2-ylmethyl]-1H-imidazole hydrochloride]	
1.19 ± 0.03	16 ± 8	OC(Cn1ccnc1)c1ccc(Cl)cc1 (racemic) [(±)-1-(4-chloro-phenyl)-2-imidazol-1-yl-ethanol hydrochloride]	
0.67 ± 0.02	1.7 ± 0.2	N#Cc1ccc(OCC2CO[C@@](CCc3ccc(Cl)cc3)(Cn3ccnc3)O2)cc1 (stereo in doubt) [(2R,4S)-4-{2-[2-(4-chlorophenyl)ethyl]-2-imidazol-1-ylmethyl-[1,3]dioxolan-4-ylmethoxy}-benzonitrile hydrochloride]	
0.59 ± 0.04	1.6 ± 0.3	Clc1ccc(CC[C@@]2(Cn3ccnc3)OCC(COc3ccccc3)O2)cc1 (stereo in doubt) [(2R,4S)-1-{2-[2-(4-chloro-phenyl)-ethyl]-4-phenoxymethyl-[1,3]dioxolan-2-ylmethyl}-1H-imidazole hydrochloride]	
0.4 ± 0.1	8 ± 2	c1cn(CCCCc2ccc(CCCCn3ccnc3)cc2)cn1 [1,4-bis[(4-1H-imidazol-1-yl)butyl]benzene dihydrochloride]	
0.225 ± 0.004	1 ± 1	OC(Cn1ccnc1)c1ccc(CCc2ccccc2)cc1 (racemic) [(±)-2-imidazol-1-yl-1-(4-phenethyl-phenyl)-ethanol]	
0.06 ± 0.03	> 100	OC(Cn1ccnc1)c1ccc(-c2ccc(Br)cc2)cc1 (racemic) [drawing 342, (±)-1-(4′-bromo-biphenyl-4-yl)-2-imidazol-1-yl-ethanol]	
